# Reference: article PMC10051477, “5,8-Dimethyl-9H-carbazole Derivatives Blocking hTopo I Activity and Actin Dynamics” (Pharmaceuticals, 2023)
# Target: T1, hTopo I (Homo sapiens, UniProt P11387)
# T1 construct: purchased TopoGEN
# T1 sequence (P11387 1-765): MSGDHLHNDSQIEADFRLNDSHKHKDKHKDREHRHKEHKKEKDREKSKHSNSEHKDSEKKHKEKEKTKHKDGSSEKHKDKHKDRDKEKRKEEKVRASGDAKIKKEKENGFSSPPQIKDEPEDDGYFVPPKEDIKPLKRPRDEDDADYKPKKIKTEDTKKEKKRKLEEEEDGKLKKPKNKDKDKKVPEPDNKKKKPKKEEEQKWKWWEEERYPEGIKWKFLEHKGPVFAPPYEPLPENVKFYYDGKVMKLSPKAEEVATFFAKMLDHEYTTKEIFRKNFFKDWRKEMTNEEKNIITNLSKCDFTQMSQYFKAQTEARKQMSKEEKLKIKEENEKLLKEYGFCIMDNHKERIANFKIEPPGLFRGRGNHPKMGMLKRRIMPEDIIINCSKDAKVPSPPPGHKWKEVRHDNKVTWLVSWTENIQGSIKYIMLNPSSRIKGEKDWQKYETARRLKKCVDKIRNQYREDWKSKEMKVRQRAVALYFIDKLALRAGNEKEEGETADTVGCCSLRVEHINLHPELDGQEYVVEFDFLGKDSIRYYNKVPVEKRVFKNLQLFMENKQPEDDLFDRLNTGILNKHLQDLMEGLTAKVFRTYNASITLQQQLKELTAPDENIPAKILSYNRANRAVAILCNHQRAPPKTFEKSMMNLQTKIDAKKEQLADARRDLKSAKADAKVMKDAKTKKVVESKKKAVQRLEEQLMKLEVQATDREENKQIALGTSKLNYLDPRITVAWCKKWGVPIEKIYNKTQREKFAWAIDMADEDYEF
# Assay: hTopo I relaxation assay
# Assay type: biochemical
# Settings: compound at 1 μM, pHOT1 plasmid, agarose gel
# Method: Indeed, as shown in Figure 3a (lanes 3 and 4), a clear band of the uncut plasmid DNA at the bottom of the gel is present. The uncut plasmid pHOT1, used as marker, is present in Figure 3a, lane 1. On the contrary, in the control reaction (only vehicle, Figure 3a, lane 2), it is possible to observe the presence of multiple bands corresponding to the relaxed plasmid DNA, used as substrate.
# hTopo I relaxation assays were performed as indicated in the manufacturer’s protocol (TopoGEN, Port Orange, FL, USA) with some revisions. hTopo I relaxation assays were performed in a final volume of 20 μL: 0.25 μg of supercoiled pHOT1 in TE buffer [TE: 10 mM Tris-HCl (pH 7.5), 1 mM EDTA] was added to a solution containing water, 1× assay buffer (10 mM Tris-HCl (pH 7.9), 1 mM EDTA, 0.5 mM NaCl, 0.1% bovine serum albumin, 0.1 mM spermidine and 5% glycerol) and the tested compounds. The mix was incubated for 15 min at 37 °C. Then, the reaction was initiated by addition of recombinant hTopo I (2 U), incubated at 37 °C for 1 h and terminated by the addition of 5× stop buffer (5% sarkosyl, 25% glycerol, 0.125% bromophenol blue). The aqueous phase was loaded onto a 1% agarose gel containing 1× TAE buffer (diluted from50× buffer containing 242 g Tris base, 57.1 mL glacial acetic acid and 100 mL of 0.5 M EDTA) without ethidium bromide (EB). […]
row,Inhibition of hTopo I supercoiling relaxing activity,Structure (SMILES)
1,totally inhibited,Cc1ccc(C)c2c1c1cc(O)ccc1n2C(=O)OC(C)(C)C [Compound 4]
2,totally inhibited,Cc1ccc(C)c2c1c1cc(B(O)O)ccc1n2C(=O)OC(C)(C)C [Compound 3]
